Measured values from ChEMBL document CHEMBL1149638, “Synthesis of novel antitumoural analogues of dysidiolide from ent-halimic acid” (Bioorg Med Chem, 2007).

Tests used:
Type in all cases: functional, cell-based
A549 = test: Antiproliferative activity against human A549 cells after 72 hrs by XTT assay; conditions: A549, 72 h
HT-29 = test: Antiproliferative activity against human HT29 cells after 72 hrs by XTT assay; conditions: HT-29, 72 h
HeLa = test: Antiproliferative activity against human HeLa cells after 72 hrs by XTT assay
HL-60 = test: Antiproliferative activity against human HL60 cells after 72 hrs by XTT assay; conditions: HL-60, 72 h

IC50 (A549) [µM]	IC50 (HT-29) [µM]	IC50 (HeLa) [µM]	IC50 (HL-60) [µM]	SMILES
4.5	4.2	2.6	3	C=C(C)CCC[C@]1(C)C2=CCC[C@](C)(C[C@H](OC(C)=O)C3=CC(=O)OC3O)[C@H]2CC[C@H]1C (stereo not given in full)
28.2	18.7	26.5	18.7	COC/C=C(\C)CC[C@]1(C)C2=C(CC[C@H]1C)C1(C)CCC2[C@@](O)(C2=CC(=O)OC2O)C1 (stereo not given in full)
4.4	3.6	5.4	3.3	C=C(C)CC[C@]1(C)C2=CCC[C@](C)(C[C@@H](O)C3=CC(=O)OC3O)[C@H]2CC[C@H]1C (stereo not given in full)
34	30	30.2	28.7	C=C(C)CC[C@]1(C)C2=CCC[C@](C)(C[C@@H](O)c3ccoc3)[C@H]2CC[C@H]1C
66	63.1	59.4	31.2	C=C(C)CCC[C@]1(C)C2=CCC[C@](C)(C[C@H](O)c3ccoc3)[C@H]2CC[C@H]1C
91	82.3	54.5	57.8	CC(C)=CCC[C@]1(C)C2=CCC[C@](C)(CC(=O)c3ccoc3)[C@H]2CC[C@H]1C
3.2	3	3.8	3	C=C(C)CCC[C@]1(C)C2=CCC[C@](C)(C[C@H](O)C3=CC(=O)OC3O)[C@H]2CC[C@H]1C (stereo not given in full)
3.8	2.3	2.6	3.2	C=C(C)CCC[C@]1(C)C2=CCC[C@](C)(C[C@@H](O)C3=CC(=O)OC3O)[C@H]2CC[C@H]1C (stereo not given in full)
4.5	3.2	4.8	3.2	C=C(C)CC[C@]1(C)C2=CCC[C@](C)(C[C@H](O)C3=CC(=O)OC3O)[C@H]2CC[C@H]1C (stereo not given in full)
3	2.9	3.1	0.3	C=C(C)CCC[C@]1(C)C2=C(CC[C@H]1C)C1(C)CCC2[C@@](O)(C2=CC(=O)OC2O)C1 (stereo not given in full)
34	30	30.2	28.7	C=C(C)CC[C@]1(C)C2=CCC[C@](C)(C[C@H](O)c3ccoc3)[C@H]2CC[C@H]1C
66	63.1	59.4	31.2	C=C(C)CCC[C@]1(C)C2=CCC[C@](C)(C[C@@H](O)c3ccoc3)[C@H]2CC[C@H]1C
> 100	> 100	> 100	> 100	C=C(C)CCC[C@]1(C)C2=CCC[C@](C)(CC(=O)c3ccoc3)[C@H]2CC[C@H]1C
11.1	4.8	6.7	3.3	C=C(C)CC[C@]1(C)C2=CCC[C@](C)(C[C@@H](OC(C)=O)C3=CC(=O)OC3O)[C@H]2CC[C@H]1C (stereo not given in full)
3.2	2.9	3.5	3.2	C=C(C)CCC[C@]1(C)C2=CCC[C@](C)(C[C@@H](OC(C)=O)C3=CC(=O)OC3O)[C@H]2CC[C@H]1C (stereo not given in full)
